Laboratory results from patent US9988400B2 (Genentech, Inc., priority 2013, dated 2018).

Biological target: T1, HEK cells stably transfected with tetracycline inducible hNR1 and hNR2A (Homo sapiens, UniProt Q05586+Q12879)
T1 construct: expressed in transfected cells; host or cells: HEK cells, stably transfected, tetracycline/doxycycline inducible
Assay: Assay 1: Cell-Based Assay, cytosolic calcium response to positive allosteric modulators (with 30 μM glycine and 300 nM L-glutamate, EC30)
Settings: Table 2; for EC50: cytosolic calcium response, with 30 μM glycine and 300 nM L-glutamate (EC30), — = no plateau was reached; for Max %: responses scaled relative to 100 μM L-glutamate maximal response (100%) and 0 μM L-glutamate (0%)
Procedure, shortened: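 Cells induced 24 h with 7.5 μg mL^−1 doxycycline plus 500 μM (+)-ketamine, loaded 60 min at 37 °C with calcium dye in Mg-free HBSS (1.8 mM Ca, probenecid, 10 μM (+)-ketamine, pH 7.15). Peak RFU over 5 min after compound addition, scaled to 100 μM L-glutamate (100%) and 0 μM (0%); four-parameter Hill fit for EC50, max % if no plateau.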

T1 sequence (Q12879 23-1464, other chains not shown): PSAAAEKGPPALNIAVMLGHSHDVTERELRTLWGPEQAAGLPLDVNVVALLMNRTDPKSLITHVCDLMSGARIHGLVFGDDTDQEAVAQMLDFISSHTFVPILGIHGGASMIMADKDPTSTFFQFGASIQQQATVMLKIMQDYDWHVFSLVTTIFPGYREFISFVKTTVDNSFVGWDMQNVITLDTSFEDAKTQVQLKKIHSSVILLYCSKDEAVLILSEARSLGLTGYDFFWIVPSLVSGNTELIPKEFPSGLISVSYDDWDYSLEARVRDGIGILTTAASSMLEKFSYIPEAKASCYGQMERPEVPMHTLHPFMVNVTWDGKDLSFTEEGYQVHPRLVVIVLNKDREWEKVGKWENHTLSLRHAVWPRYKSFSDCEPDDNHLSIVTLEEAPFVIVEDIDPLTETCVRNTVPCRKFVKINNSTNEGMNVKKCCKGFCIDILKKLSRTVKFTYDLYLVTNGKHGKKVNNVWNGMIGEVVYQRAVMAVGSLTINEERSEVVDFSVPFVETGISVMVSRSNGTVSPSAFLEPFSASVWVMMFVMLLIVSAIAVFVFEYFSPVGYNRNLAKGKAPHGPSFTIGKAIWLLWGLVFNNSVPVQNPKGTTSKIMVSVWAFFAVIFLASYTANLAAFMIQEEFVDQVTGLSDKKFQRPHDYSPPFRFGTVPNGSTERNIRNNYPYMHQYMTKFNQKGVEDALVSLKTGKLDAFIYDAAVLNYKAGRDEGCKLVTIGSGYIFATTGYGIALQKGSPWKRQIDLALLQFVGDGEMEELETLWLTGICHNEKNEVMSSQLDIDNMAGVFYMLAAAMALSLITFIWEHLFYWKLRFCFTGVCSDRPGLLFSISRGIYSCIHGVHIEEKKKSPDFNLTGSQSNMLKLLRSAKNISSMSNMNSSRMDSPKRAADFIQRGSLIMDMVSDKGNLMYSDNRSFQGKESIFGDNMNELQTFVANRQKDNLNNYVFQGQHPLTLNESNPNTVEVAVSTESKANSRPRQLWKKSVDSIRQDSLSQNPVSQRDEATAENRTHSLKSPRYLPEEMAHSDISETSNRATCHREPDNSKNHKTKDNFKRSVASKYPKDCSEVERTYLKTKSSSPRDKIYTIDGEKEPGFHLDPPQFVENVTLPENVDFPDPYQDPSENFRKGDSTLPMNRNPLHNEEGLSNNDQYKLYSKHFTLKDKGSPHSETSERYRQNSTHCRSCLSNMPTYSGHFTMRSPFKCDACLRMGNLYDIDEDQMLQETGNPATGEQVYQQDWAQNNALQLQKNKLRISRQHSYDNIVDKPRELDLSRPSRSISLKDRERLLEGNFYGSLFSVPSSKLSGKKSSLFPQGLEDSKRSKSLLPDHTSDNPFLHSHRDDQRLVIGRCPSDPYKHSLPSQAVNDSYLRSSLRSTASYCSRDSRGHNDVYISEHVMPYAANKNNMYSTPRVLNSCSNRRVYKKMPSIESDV

CCN(Cc1cc(=O)n2c(C(F)(F)F)c(C)sc2n1)c1ccc(F)cc1 [Example 5.38, 7-((ethyl(4-fluorophenyl)amino)methyl)-2-methyl-3-(trifluoromethyl)-5H-thiazolo[3,2-a]pyrimidin-5-one]
EC50: 1.1 µM | Max %: 147%

CCc1c(C)sc2nc(CN(CC)c3ccc(F)cc3)cc(=O)n12 [Example 5.40, 3-ethyl-7-((ethyl(4-fluorophenyl)amino)methyl)-2-methyl-5H-thiazolo[3,2-a]pyrimidin-5-one]
EC50: 1.9 µM | Max %: 149%

CCCc1c(C)sc2nc(CN(CC)c3ccc(F)cc3)cc(=O)n12 [Example 5.41, 7-((ethyl(4-fluorophenyl)amino)methyl)-2-methyl-3-propyl-5H-thiazolo[3,2-a]pyrimidin-5-one]
EC50: 2 µM | Max %: 125%

CCN(Cc1cc(=O)n2c(-c3ccoc3)c(C)sc2n1)c1ccc(F)cc1 [Example 5.44, 7-((ethyl(4-fluorophenyl)amino)methyl)-3-(furan-3-yl)-2-methyl-5H-thiazolo[3,2-a]pyrimidin-5-one]
EC50: 1.1 µM | Max %: 158%

CCN(Cc1cc(=O)n2c(-c3ccco3)c(C)sc2n1)c1ccc(F)cc1 [Example 5.45, 7-((ethyl(4-fluorophenyl)amino)methyl)-3-(furan-2-yl)-2-methyl-5H-thiazolo[3,2-a]pyrimidin-5-one]
EC50: 0.214 µM | Max %: 139%

Cc1sc2nc(CN3c4ccc(F)cc4CC3C)cc(=O)n2c1-c1ccco1 (stereo not shown) [Example 5.46, 7-((5-fluoro-2-methylindolin-1-yl)methyl)-3-(furan-2-yl)-2-methyl-5H-thiazolo[3,2-a]pyrimidin-5-one]
EC50: 3.8 µM | Max %: 155%

CCN(Cc1cc(=O)n2c(-c3ccsc3)c(C)sc2n1)c1ccc(F)cc1 [Example 5.47, 7-((ethyl(4-fluorophenyl)amino)methyl)-2-methyl-3-(thiophen-3-yl)-5H-thiazolo[3,2-a]pyrimidin-5-one]
EC50: 0.976 µM | Max %: 151%

Cc1sc2nc(CN3c4ccc(F)cc4CC3C)cc(=O)n2c1-c1cncnc1 (stereo not shown) [Example 5.48, 7-((5-fluoro-2-methylindolin-1-yl)methyl)-2-methyl-3-(pyrimidin-5-yl)-5H-thiazolo[3,2-a]pyrimidin-5-one]
EC50: 6.2 µM | Max %: 136%

CCN(Cc1cc(=O)n2c(-c3nc(C)cs3)c(C)sc2n1)c1ccc(F)cc1 [Example 5.49, 7-((ethyl(4-fluorophenyl)amino)methyl)-2-methyl-3-(4-methylthiazol-2-yl)-5H-thiazolo[3,2-a]pyrimidin-5-one]
EC50: 12.9 µM | Max %: 127%

CCN(Cc1cc(=O)n2c(-c3ccc(=O)[nH]c3)c(C)sc2n1)c1ccc(F)cc1 [Example 5.50, 7-((ethyl(4-fluorophenyl)amino)methyl)-2-methyl-3-(6-oxo-1,6-dihydropyridin-3-yl)-5H-thiazolo[3,2-a]pyrimidin-5-one]
Max %: 96.8%

CCN(Cc1cc(=O)n2c(-c3ccc(N)nc3)c(C)sc2n1)c1ccc(F)cc1 [Example 5.51, 3-(6-aminopyridin-3-yl)-7-((ethyl(4-fluorophenyl)amino)methyl)-2-methyl-5H-thiazolo[3,2-a]pyrimidin-3-one]
EC50: 40.7 µM | Max %: 80.3%

CC#Cc1c(C)sc2nc(CN(CC)c3ccc(F)cc3)cc(=O)n12 [Example 5.52]
EC50: 1.6 µM | Max %: 58%

C=Cc1c(C)sc2nc(CN(CC)c3ccc(F)cc3)cc(=O)n12 [Example 5.53, 7-((ethyl(4-fluorophenyl)amino)methyl)-2-methyl-3-vinyl-5H-thiazolo[3,2-a]pyrimidin-5-one]
EC50: 1.3 µM | Max %: 153%

CCN(Cc1cc(=O)n2c(Br)c(C3CC3)sc2n1)c1ccc(F)cc1 [Example 5.54, 3-bromo-2-cyclopropyl-7-[(N-ethyl-4-fluoro-anilino)methyl]thiazolo[3,2-a]pyrimidin-5-one]
EC50: 51.5 µM | Max %: 129%

CCN(Cc1cc(=O)n2c(-c3cc(F)cc(F)c3)c(C)sc2n1)c1ccc(F)cc1 [Example 5.55, 3-(3,5-difluorophenyl)-7-[(N-ethyl-4-fluoro-anilino)methyl]-2-methyl-thiazolo[3,2-a]pyrimidin-5-one]
EC50: 4.7 µM | Max %: 111%

CCN(Cc1cc(=O)n2c(-c3ccn(C)n3)c(C)sc2n1)c1ccc(F)cc1 [Example 5.56, 7-[(N-ethyl-4-fluoro-anilino)methyl]-2-methyl-3-(1-methylpyrazol-3-yl)thiazolo[3,2-a]pyrimidin-5-one]
Max %: 110%

CCN(Cc1cc(=O)n2c(-c3ccnc(N)c3)c(C)sc2n1)c1ccc(F)cc1 [Example 5.57, 3-(2-amino-4-pyridyl)-7-[(N-ethyl-4-fluoro-anilino)methyl]-2-methyl-thiazolo[3,2-a]pyrimidin-5-one]
EC50: 6.4 µM | Max %: 120%

CCN(Cc1cc(=O)n2c(-c3cncc(OC)c3)c(C)sc2n1)c1ccc(F)cc1 [Example 5.58, 7-[(N-ethyl-4-fluoro-anilino)methyl]-3-(5-methoxy-3-pyridyl)-2-methyl-thiazolo[3,2-a]pyrimidin-5-one]
EC50: 5.1 µM | Max %: 120%

CCN(Cc1cc(=O)n2c(N3CCOCC3)c(C)sc2n1)c1ccc(F)cc1 [Example 6.1, 7-((ethyl(4-fluorophenyl)amino)methyl)-2-methyl-3-morpholino-5H-thiazolo[3,2-a]pyrimidin-5-one]
EC50: 10 µM | Max %: 123%

CCN(Cc1cc(=O)n2c(N(C)C)c(C)sc2n1)c1ccc(F)cc1 [Example 6.2, 3-(dimethylamino)-7-((ethyl(4-fluorophenyl)amino)methyl)-2-methyl-5H-thiazolo[3,2-a]pyrimidin-5-one]
EC50: 5 µM | Max %: 121%

CCN(Cc1cc(=O)n2c(N3CCCC3)c(C)sc2n1)c1ccc(F)cc1 [Example 6.3, 7-((ethyl(4-fluorophenyl)amino)methyl)-2-methyl-3-(pyrrolidin-1-yl)-5H-thiazolo[3,2-a]pyrimidin-5-one]
EC50: 10.1 µM | Max %: 91.9%

CCN(Cc1cc(=O)n2c(C#N)c(C)sc2n1)c1ccc(F)c(F)c1 [Example 7.1, 7-(((3,4-difluorophenyl)(ethyl)amino)methyl)-2-methyl-5-oxo-5H-thiazolo[3,2-a]pyrimidine-3-carbonitrile]
EC50: 0.853 µM | Max %: 184%

CCN(Cc1cc(=O)n2c(C#N)c(C)sc2n1)c1cccc(F)c1 [Example 7.2, 7-((ethyl(3-fluorophenyl)amino)methyl)-2-methyl-5-oxo-5H-thiazolo[3,2-a]pyrimidine-3-carbonitrile]
EC50: 0.612 µM | Max %: 134%

CCN(Cc1cc(=O)n2c(C#N)c(C)sc2n1)c1ccc(F)cc1 [Example 7.3, 7-[(N-ethyl-4-fluoro-anilino)methyl]-2-methyl-5-oxo-thiazolo[3,2-a]pyrimidine-3-carbonitrile]
EC50: 0.376 µM | Max %: 156%

CCN(Cc1cc(=O)n2c(C#N)csc2n1)c1ccc(F)cc1 [Example 7.4, 7-[(N-ethyl-4-fluoro-anilino)methyl]-5-oxo-thiazolo[3,2-a]pyrimidine-3-carbonitrile]
EC50: 5.7 µM | Max %: 166%

Cc1sc2nc(CN3c4ccc(F)cc4CC3C)cc(=O)n2c1C#N (stereo not shown) [Example 7.5, 7-((5-fluoro-2-methylindolin-1-yl)methyl)-2-methyl-5-oxo-5H-thiazolo[3,2-a]pyrimidine-3-carbonitrile]
EC50: 2.1 µM | Max %: 162%

CCN(Cc1cc(=O)n2c(C#N)c(C)sc2n1)c1cccc(C#N)c1 [Example 7.6, 7-(((3-cyanophenyl)(ethyl)amino)methyl)-2-methyl-5-oxo-5H-thiazolo[3,2-a]pyrimidine-3-carbonitrile]
EC50: 3.7 µM | Max %: 151%

CCN(Cc1cc(=O)n2c(C#N)c(C)sc2n1)c1ccccn1 [Example 7.7, 7-((ethyl(pyridin-2-yl)amino)methyl)-2-methyl-5-oxo-5H-thiazolo[3,2-a]pyrimidine-3-carbonitrile]
EC50: 21 µM | Max %: 148%

Cc1sc2nc(CN3c4ccccc4CC3C)cc(=O)n2c1C#N (stereo not shown) [Example 7.8, 2-methyl-7-((2-methylindolin-1-yl)methyl)-5-oxo-5H-thiazolo[3,2-a]pyrimidine-3-carbonitrile]
EC50: 2.5 µM | Max %: 126%

CCN(Cc1cc(=O)n2c(C#N)c(C)sc2n1)c1cc(F)cc(F)c1 [Example 7.9, 7-(((3,5-difluorophenyl)(ethyl)amino)methyl)-2-methyl-5-oxo-5H-thiazolo[3,2-a]pyrimidine-3-carbonitrile]
EC50: 1.3 µM | Max %: 121%

CCN(Cc1cc(=O)n2c3c(sc2n1)CCC3)c1ccc(F)cc1 [Example 8.1, 6-[(N-ethyl-4-fluoro-anilino)methyl]-2,3-dihydro-1H-cyclopenta[3,4]thiazolo[1,4-a]pyrimidin-8-one]
EC50: 5.2 µM | Max %: 146%

CCN(Cc1cc(=O)n2c3c(sc2n1)CCCC3)c1ccc(F)cc1 [Example 8.2, 2-[(N-ethyl-4-fluoro-anilino)methyl]-6,7,8,9-tetrahydropyrimido[2,1-b][1,3]benzothiazol-4-one]
EC50: 7.2 µM | Max %: 122%

CCN(Cc1cc(=O)n2c3c(sc2n1)CCC3CO)c1ccc(F)cc1 (stereo not shown) [Example 8.5, 6-[(N-ethyl-4-fluoro-anilino)methyl]-1-(hydroxymethyl)-2,3-dihydro-1H-cyclopenta[3,4]thiazolo[1,4-a]pyrimidin-8-one]
EC50: 16.9 µM | Max %: 114%
